This experiment deals with recombinant rabies virus 1088 strain expressing Gaussia Luciferase (GLuc) (1088/GLuc). Type of experiment: cell-based.

The structures appear in SMILES notation. pIC50: −log10 of the molar value. Like-named read-outs stand apart in the source and are kept apart here.

`CC(C)CCNC(=O)[C@@]12C[C@@H]3CN(CCc4ccccc4)[C@@H]([C@@H]3CN1)[C@H]2Cc1ccc(O)cc1` (relative stereo) [IF-707]: where the note is “read-out: Anti-rabies activity”, the pIC50 was greater than 5.30.
On the same count and under the same terms, as for `O=C(NCCc1ccccc1)[C@@]12C[C@@H]3CN(Cc4cccc5ccccc45)[C@@H]([C@@H]3CN1)[C@H]2Cc1ccc(O)cc1` (relative stereo) [IF-708], the figure is greater than 5.30; as for `CC(C)CCNC(=O)[C@@]12C[C@@H]3CN(CC4CCCCC4)[C@@H]([C@@H]3CN1)[C@H]2Cc1ccc(O)cc1` (relative stereo) [IF-709], 4.52 to 5.00.
Still for that read-out and setting: as for `O=C(NCCc1ccccc1)[C@@]12C[C@@H]3CN(CC4CCCCC4)[C@@H]([C@@H]3CN1)[C@H]2Cc1ccccc1` (relative stereo) [IF-710], the figure is greater than 5.30.
Same read-out and setting: under `CC(C)C[C@@H]1[C@@H]2[C@@H]3CN[C@@]1(C(=O)NCCc1ccccc1)C[C@@H]3CN2CC1CCCCC1` (relative stereo) [IF-711] stands 4.52 to 5.00; under `CC(C)C[C@@H]1[C@@H]2[C@@H]3CN[C@@]1(C(=O)NCCc1ccccc1)C[C@@H]3CN2Cc1ccc(F)cc1` (relative stereo) [IF-714], greater than 5.30; under `O=C(NCCc1ccccc1)[C@@]12C[C@@H]3CN(Cc4ccc(F)cc4)[C@@H]([C@@H]3CN1)[C@H]2Cc1ccc(O)cc1` (relative stereo) [IF-715], greater than 5.30.
For `CC(C)CC[C@@H]1[C@@H]2[C@@H]3CN[C@@]1(C(=O)NCCc1ccccc1)C[C@@H]3CN2CC1CCCCC1` (relative stereo) [IF-717], the pIC50 (read-out: Anti-rabies activity) was greater than 5.30.
Same read-out and setting: under `O=C(NCCc1ccccc1)[C@@]12C[C@@H]3CN(CC4CCCCC4)[C@@H]([C@@H]3CN1)[C@H]2Cc1cccc2ccccc12` (relative stereo) [IF-718] stands greater than 5.30; under `CC(C)C[C@@H]1[C@@H]2[C@@H]3CN[C@@]1(C(=O)NCCc1ccccc1)C[C@@H]3CN2Cc1ccccc1` (relative stereo) [IF-721], greater than 5.30; under `O=C(NCCc1ccccc1)[C@@]12C[C@@H]3CN(Cc4ccccc4)[C@@H]([C@@H]3CN1)[C@H]2Cc1ccc(O)cc1` (relative stereo) [IF-722], greater than 5.30.
As for `CC(C)CC[C@@H]1[C@@H]2[C@@H]3CN[C@@]1(C(=O)NCCc1ccccc1)C[C@@H]3CN2Cc1ccccc1` (relative stereo) [IF-723], the pIC50 (read-out: Anti-rabies activity) was 4.52 to 5.00.
Still for that read-out and setting: as for `CC(C)C[C@@H]1[C@@H]2[C@@H]3CN[C@@]1(C(=O)NCCc1ccccc1)C[C@@H]3CN2CC(C)C` (relative stereo) [IF-725], the figure is 4.52 to 5.00.
Still for that read-out and setting: under `CC(C)C[C@@H]1[C@@H]2[C@@H]3CN[C@@]1(C(=O)NCc1cccc4ccccc14)C[C@@H]3CN2CC(C)C` (relative stereo) [IF-726] stands 4.52 to 5.00; under `CC(C)CC[C@@H]1[C@@H]2[C@@H]3CN[C@@]1(C(=O)NCCc1ccccc1)C[C@@H]3CN2CC(C)C` (relative stereo) [IF-727], greater than 5.30.
For the compound `CC(C)CCN1C[C@H]2C[C@]3(C(=O)NCc4ccccc4)NC[C@H]2[C@H]1[C@H]3CC(C)C` (relative stereo) [IF-733], the pIC50 (read-out: Anti-rabies activity) is greater than 5.30.
On the same count and under the same terms, as for `CC(C)CCN1C[C@H]2C[C@]3(C(=O)NCC(C)C)NC[C@H]2[C@H]1[C@H]3Cc1cccc2ccccc12` (relative stereo) [IF-734], the figure is greater than 5.30.
On the same count and under the same terms, as for `CC(C)CCN1C[C@H]2C[C@]3(C(=O)NCC(C)C)NC[C@H]2[C@H]1[C@H]3Cc1ccccc1` (relative stereo) [IF-735], the figure is 4.52 to 5.00; as for `CC(C)CNC(=O)[C@@]12C[C@@H]3CN(CCc4ccccc4)[C@@H]([C@@H]3CN1)[C@H]2CC(C)C` (relative stereo) [IF-738], 4.52 to 5.00.
Still for that read-out and setting: under `CC(C)CNC(=O)[C@@]12C[C@@H]3CN(Cc4cccc5ccccc45)[C@@H]([C@@H]3CN1)[C@H]2CC(C)C` (relative stereo) [IF-739] stands greater than 5.30; under `CC(C)CC[C@@H]1[C@@H]2[C@@H]3CN[C@@]1(C(=O)NCc1ccccc1)C[C@@H]3CN2CC1CCCCC1` (relative stereo) [IF-740], 4.52 to 5.00; under `CC(C)CNC(=O)[C@@]12C[C@@H]3CN(CC4CCCCC4)[C@@H]([C@@H]3CN1)[C@H]2CC(C)C` (relative stereo) [IF-742], 4.52 to 5.00.
`CC(C)CC[C@@H]1[C@@H]2[C@@H]3CN[C@@]1(C(=O)NCc1ccccc1)C[C@@H]3CN2Cc1ccc(F)cc1` (relative stereo) [IF-743]: the pIC50 (read-out: Anti-rabies activity) is 4.52 to 5.00.
Same read-out and setting: under `CC(C)CCNC(=O)[C@@]12C[C@@H]3CN(CCc4ccccc4)[C@@H]([C@@H]3CN1)[C@H]2Cc1ccccc1` (relative stereo) [IF-744] stands greater than 5.30; under `CC(C)CN1C[C@H]2C[C@]3(C(=O)NCc4ccccc4)NC[C@H]2[C@H]1[C@H]3Cc1cccc2ccccc12` (relative stereo) [IF-753], 4.52 to 5.00.
Same read-out and setting: under `O=C(NCc1cccc2ccccc12)[C@@]12C[C@@H]3CN(CCO)[C@@H]([C@@H]3CN1)[C@H]2Cc1ccccc1` (relative stereo) [IF-758] stands greater than 5.30; under `CC(C)CN1C[C@H]2C[C@]3(C(=O)NCc4cccc5ccccc45)NC[C@H]2[C@H]1[C@H]3Cc1cccc2ccccc12` (relative stereo) [IF-778], greater than 5.30; under `O=C(NCc1cccc2ccccc12)[C@@]12C[C@@H]3CN(Cc4ccc(O)cc4)[C@@H]([C@@H]3CN1)[C@H]2Cc1cccc2ccccc12` (relative stereo) [IF-779], 4.52 to 5.00.
Still for that read-out and setting: under `CC(C)NC(=O)[C@@]12C[C@@H]3CN(Cc4cccc5ccccc45)[C@@H]([C@@H]3CN1)[C@H]2CCc1ccccc1` (relative stereo) [IF-789] stands 4.52 to 5.00; under `CC(C)C[C@@H]1[C@@H]2[C@@H]3CN[C@@]1(C(=O)NCc1cccc4ccccc14)C[C@@H]3CN2Cc1ccccc1` (relative stereo) [IF-837], 5.00 to 5.30; under `CC(C)C[C@@H]1[C@@H]2[C@@H]3CN[C@@]1(C(=O)NCc1ccc(C(F)(F)F)cc1)C[C@@H]3CN2Cc1ccccc1` (relative stereo) [IF-838], 4.52 to 5.00.
Turning to `CC(C)CNC(=O)[C@]12N=C[C@@H]3C[C@H]1CN(Cc1ccccc1)[C@H]2[C@@H]3CC(C)C` (relative stereo) [IIB-4, (3S*,3aS*,6R*,7R*,7aS*)-1-benzyl-N,7-diisobutyl-1,2,3,6,7,7a-hexahydro-3aH-3,6-methanopyrrolo[3,2-b]pyridine-3a-carboxamide], the pIC50 (read-out: Anti-rabies activity) was 5.00 to 5.30 and the pIC50 (read-out: IC50) is 5.05.
As to `Cc1ccc(CNC(=O)[C@@]23C[C@@H]4CN(CC(C)C)[C@@H]([C@@H]4C=N2)[C@H]3Cc2ccccc2)cc1` (relative stereo) [IIF-16], the pIC50 runs as follows: (read-out: Anti-rabies activity) 4.52 to 5.00; (read-out: IC50) 4.54.
Regarding `CC(C)CCN1C[C@H]2C[C@]3(C(=O)NCc4cccc(Cl)c4)N=C[C@H]2[C@H]1[C@H]3Cc1ccccc1` (relative stereo) [IIF-325], where the note is “read-out: Anti-rabies activity”, the pIC50 was greater than 5.30.
Still for that read-out and setting: as for `CC(C)CCN1C[C@H]2C[C@]3(C(=O)NCc4ccc(F)cc4)N=C[C@H]2[C@H]1[C@H]3Cc1ccccc1` (relative stereo) [IIF-327], the figure is greater than 5.30; as for `Cc1ccc(CNC(=O)[C@@]23C[C@@H]4CN(CCC(C)C)[C@@H]([C@@H]4C=N2)[C@H]3Cc2ccccc2)cc1` (relative stereo) [IIF-328], greater than 5.30.
Turning to `COc1ccc(CNC(=O)[C@@]23C[C@@H]4CN(CCC(C)C)[C@@H]([C@@H]4C=N2)[C@H]3Cc2ccccc2)cc1` (relative stereo) [IIF-329], under “read-out: Anti-rabies activity”, the pIC50 is greater than 5.30.
The same measure, in the same setting: as for `COc1ccc(CNC(=O)[C@@]23C[C@@H]4CN(CC(C)C)[C@@H]([C@@H]4C=N2)[C@H]3CCc2ccccc2)cc1` (relative stereo) [IIF-332], the figure is greater than 5.30.
Still for that read-out and setting: as for `CC(C)CC1C2CNC3(C(=O)NCCc4ccccc4)C(C2)CN(CC(N)=O)C13` (stereo not drawn) [IB-86], the figure is 4.52 to 5.00; as for `NC(=O)CN1CC2CC3CNC2(C(=O)NCCc2ccccc2)C1C3Cc1ccccc1` (stereo not drawn) [IB-87], greater than 5.30; as for `CCCCCCNC(=O)C12NCC3CC1CN(CC(N)=O)C2C3CCC(C)C` (stereo not drawn) [IB-108], 4.52 to 5.00.
In the case of `CCCCCCNC(=O)C12NCC3CC1CN(CC(N)=O)C2C3CCc1ccccc1` (stereo not drawn) [IB-109], the pIC50 (read-out: Anti-rabies activity) is 4.52 to 5.00.
Still for that read-out and setting: as for `CCCCCCNC(=O)C12NCC3CC1CN(CC(N)=O)C2C3Cc1cccc2ccccc12` (stereo not drawn) [IB-110], the figure is greater than 5.30; as for `NC(=O)CN1CC2CC3CNC2(C(=O)NCc2ccccc2)C1C3CCc1ccccc1` (stereo not drawn) [IB-130], 4.52 to 5.00; as for `CC(C)CNC(=O)C12NCC3CC1CN(Cc1ccc(O)cc1)C2C3CCCNC(=N)N` (stereo not drawn) [IB-203], 4.52 to 5.00.
The same measure, in the same setting: as for `N=C(N)NCCCC1C2CNC3(C(=O)NCc4ccc(F)cc4)C(C2)CN(Cc2ccc(O)cc2)C13` (stereo not drawn) [IB-207], the figure is 4.52 to 5.00; as for `O=C(O)CCNC(=O)C12NCC3CC1CN(Cc1ccc(F)cc1)C2C3Cc1cccc2ccccc12` (stereo not drawn) [IB-384], 4.52 to 5.00.
Same read-out and setting: under `CC(C)CCN1CC2CC3CNC2(C(=O)NCc2ccc(F)cc2)C1C3CCC(=O)O` (stereo not drawn) [IB-386] stands 4.52 to 5.00; under `O=C(O)CCC1C2CNC3(C(=O)NCc4cccc5ccccc45)C(C2)CN(CC2CCCCC2)C13` (stereo not drawn) [IB-389], 4.52 to 5.00; under `O=C(O)CCC1C2CNC3(C(=O)NCc4cccc5ccccc45)C(C2)CN(Cc2ccc(F)cc2)C13` (stereo not drawn) [IB-390], 4.52 to 5.00.
On to `CC(C)CC1C2CNC3(C(=O)NCc4cccc5ccccc45)C(C2)CN(CCC(=O)O)C13` (stereo not drawn) [IB-392], for which the pIC50 (read-out: Anti-rabies activity) is 4.52 to 5.00.
Same read-out and setting: under `O=C(O)CCN1CC2CC3CNC2(C(=O)NCc2ccc(F)cc2)C1C3Cc1ccccc1` (stereo not drawn) [IB-394] stands 4.52 to 5.00.
On the same count and under the same terms, under `CC(C)CCC1C2CNC3(C(=O)NCc4cccc5ccccc45)C(C2)CN(CCC(=O)O)C13` (stereo not drawn) [IB-398] stands 4.52 to 5.00.
Regarding `CC(C)CCC1C2CNC3(C(=O)NCc4ccc(F)cc4)C(C2)CN(CCC(=O)O)C13` (stereo not drawn) [IB-399], the pIC50 (read-out: Anti-rabies activity) was 4.52 to 5.00.
On the same count and under the same terms, under `CC(C)CCC1C2CNC3(C(=O)NCc4ccc(O)cc4)C(C2)CN(CCC(=O)O)C13` (stereo not drawn) [IB-402] stands 4.52 to 5.00; under `O=C(O)CCNC(=O)C12NCC3CC1CN(Cc1ccc(O)cc1)C2C3Cc1cccc2ccccc12` (stereo not drawn) [IB-410], 4.52 to 5.00.
Same read-out and setting: under `O=C(NCc1ccc(O)cc1)C12NCC3CC1CN(Cc1cccc4ccccc14)C2C3Cc1cccc2ccccc12` (stereo not drawn) [IB-417] stands 4.52 to 5.00.
Same read-out and setting: under `O=C(O)CCC1C2CNC3(C(=O)NCc4cccc5ccccc45)C(C2)CN(CCO)C13` (stereo not drawn) [IB-425] stands 4.52 to 5.00.

Source of the values: patent EP4104902B1, “COMPOUNDS AND M[…] SAME” (priority 2020, dated 2021).
